Where a name gives a salt, the structure may show the parent alone.
Assay: collision cross section in nitrogen (drift tube, single-field); higher = larger gas-phase ion size
[1] = ion type: [M-H], ion source: ESI, ion mode: Negative
[2] = ion type: [M+H], ion source: APCI, ion mode: Positive
[3] = ion type: [M+H], ion source: ESI, ion mode: Positive
[4] = ion type: [M+Na], ion source: ESI, ion mode: Positive
[5] = ion type: [M+], ion source: APCI, ion mode: Positive
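Also: chemical standards at 10 µM analysed by drift tube IMS-QTOF MS in about 3.95 torr nitrogen, mean of duplicate injections differing ≤1%, mass error below 10 ppm.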

Structure (SMILES)	collision cross section in nitrogen [1]	collision cross section in nitrogen [2]	collision cross section in nitrogen [3]	collision cross section in nitrogen [4]	collision cross section in nitrogen [5]
CCCCOP(=O)(O)OCCCC [Phosphoric acid, dibutyl ester]	151.3 Å²				
CCCCCCCCCCCCCCOS(=O)(=O)O [Sodium myristyl sulfate]	173.4 Å²				
Oc1ccc(Cl)c(O)c1 [4-Chlororesorcinol]	122.5 Å²				
CCOC(=O)[C@@H](C)Oc1ccc(Oc2nc3ccc(Cl)cc3o2)cc1 [Fenoxaprop-P-ethyl]		189.9 Å²	189.5 Å²	189 Å²	
CC(Cc1ccc(C(C)(C)C)cc1)CN1C[C@@H](C)O[C@@H](C)C1 (stereo partly drawn) [(2R,6S)-Fenpropimorph]		173.1 Å²	173.5 Å²		
C[C@H](CCC(=O)O)[C@H]1CC[C@H]2[C@@H]3CC[C@@H]4C[C@H](O)CC[C@]4(C)[C@H]3CC[C@]12C [Lithocholic acid]	203 Å²				
COP(=S)(OC)Oc1ccc(SC)c(C)c1 [Fenthion]			161.6 Å²	166.3 Å²	
O=C(CCCN1CCC(O)(c2ccc(Cl)cc2)CC1)c1ccc(F)cc1 [Haloperidol]	190.2 Å²	195.1 Å²	195.1 Å²	200.2 Å²	
CCCCCCCCCCCCCCCCOS(=O)(=O)O [Sodium hexyldecyl sulfate]	181.3 Å²				
CCC(C)OC(=O)N1CCCCC1CCO (centres undefined) [Icaridin]				166.5 Å²	
COc1nn(CSP(=S)(OC)OC)c(=O)s1 [Methidathion]				163.4 Å²	
C[C@]12CC[C@@H]3c4ccc(O)cc4C[C@@H](CCCCCCCCCS(=O)CCCC(F)(F)C(F)(F)F)[C@H]3[C@@H]1CC[C@@H]2O (some centres undefined) [Fulvestrant]	246.5 Å²	243.5 Å²	242.9 Å²	247.6 Å²	
c1ccc(-c2nc3ccccc3[nH]2)cc1 [2-Phenylbenzimidazole]	142.6 Å²	142.8 Å²	143 Å²		
O=C(NC(=O)c1c(F)cccc1F)Nc1cc(Cl)c(Oc2ncc(C(F)(F)F)cc2Cl)c(Cl)c1 [Chlorfluazuron]	224.4 Å²		221.8 Å²	225.6 Å²	
CC1CN1P(=O)(N1CC1C)N1CC1C (centres undefined) [Metepa]		142.5 Å²	143.2 Å²	159.9 Å²	
Cc1cc(=O)[nH]c(=O)[nH]1 [6-Methyluracil]	120.5 Å²				
O=C(O)c1cccc([N+](=O)[O-])c1 [Sodium 3-nitrobenzoate]	131.2 Å²				
COCCOC[C@H](CC1(C(=O)N[C@H]2CC[C@@H](C(=O)O)CC2)CCCC1)C(=O)Oc1ccc2c(c1)CCC2 [Candoxatril]	226.4 Å²	224.2 Å²	224.4 Å²	222.5 Å²	
CC1=NN(c2cc(Cl)c(S(=O)(=O)O)cc2Cl)C(=O)C1N=Nc1ccc(S(=O)(=O)O)cc1 (centres undefined) [C.I. Acid Yellow 17, disodium salt]	227.6 Å²				
CCOP(=S)(OCC)Oc1nc(Cl)n(C(C)C)n1 [Isazofos]			166.9 Å²	174.8 Å²	
Oc1c(Cl)cc(Cl)cc1Sc1cc(Cl)cc(Cl)c1O [Bithionol]	168.8 Å²		154.7 Å²		
CCC(Cc1ccccc1)(C(=O)c1ccc(N2CCOCC2)cc1)N(C)C (centres undefined)		195.7 Å²	195.7 Å²		
Nc1c(Oc2ccccc2)cc(O)c2c1C(=O)c1ccccc1C2=O [C.I. Disperse Red 60]	175.8 Å²	177.7 Å²	178 Å²		172.6 Å²
COc1cc(OC)nc(Oc2cccc(Oc3nc(OC)cc(OC)n3)c2C(=O)O)n1 [Bispyribac-sodium]	187.4 Å²	198.3 Å²	198.5 Å²	198.6 Å²	
CCOC(=O)COc1cc(-c2nn(C)c(OC(F)F)c2Cl)c(F)cc1Cl [Pyraflufen-ethyl]			188 Å²	198.4 Å²	
CC(C)(C)OC(=O)c1ccc(O)cc1 [tert-Butyl 4-hydroxybenzoate]	148.2 Å²				
c1csc(-c2ccc(-c3cccs3)s2)c1 [alpha-Terthiophene]					146.4 Å²

Structure (SMILES)	collision cross section in nitrogen [1]	collision cross section in nitrogen [2]	collision cross section in nitrogen [3]	collision cross section in nitrogen [4]	collision cross section in nitrogen [5]
CC(C)(C)c1ccc(O)c(C(C)(C)C)c1 [2,4-Di-tert-butylphenol]	155.1 Å²				
Cc1ccc2ccccc2n1 [2-Methylquinoline]		125.2 Å²	126.2 Å²		
NC(=O)OCC(COC(N)=O)c1ccccc1 [Felbamate]				159.6 Å²	
COc1cnc(OC)n2nc(NS(=O)(=O)c3c(OCC(F)F)cccc3C(F)(F)F)nc12 [Penoxsulam]	193.3 Å²	196 Å²	195.6 Å²	198.5 Å²	
CCCN[C@H]1CCc2nc(N)sc2C1 [Pramipexole dihydrochloride monohydrate]		152.8 Å²	152.6 Å²		
CCCCNC1CC(C)(C)NC(C)(C)C1 [N-Butyl-2,2,6,6-tetramethylpiperidin-4-amine]		153.3 Å²	154 Å²		
COP(=S)(NC(C)C)Oc1ccc(C)cc1[N+](=O)[O-] (centres undefined) [Amiprofos-methyl]	164.8 Å²			172.4 Å²	
NC(=O)N1C(=O)C(C(=O)c2cc(Cl)cs2)c2cc(F)c(Cl)cc21 (centres undefined)	173.7 Å²				
O=C(OCCOCCOC(=O)c1ccccc1)c1ccccc1 [Diethylene glycol dibenzoate]				180.8 Å²	
Cc1ccc(-c2cc(C(F)(F)F)nn2-c2ccc(S(N)(=O)=O)cc2)cc1 [Celecoxib]	190.8 Å²		187.3 Å²		
Cc1ccccc1OP(=O)(Oc1ccccc1)Oc1ccccc1 [Cresyl diphenyl phosphate]		178.3 Å²	178 Å²	188.4 Å²	
C[C@]12CC[C@@H]3c4ccc(O)cc4CC[C@H]3[C@@H]1C[C@@H](O)[C@@H]2O [Estriol]	178.1 Å²				
O=S(=O)(O)C(F)(F)F [Trifluoromethanesulfonic acid]	110.8 Å²				
O=c1n(CC2CO2)c(=O)n(CC2CO2)c(=O)n1CC1CO1 (centres undefined) [Tris(2,3-epoxypropyl)isocyanurate]		158.6 Å²	160.1 Å²	163.2 Å²	
C1CN(CCOCCN2CCOCC2)CCO1 [4,4'-(Oxydiethylene)bis(morpholine)]		151.8 Å²	152.2 Å²	156.9 Å²	
CSc1ccc(C(=O)C(C)(C)N2CCOCC2)cc1 [2-Methyl-4'-(methylthio)-2-morpholinopropiophenone]		166.4 Å²	166.7 Å²		
COc1cccc([C@H](O)C2CCN(CCc3ccc(F)cc3)CC2)c1OC [Volinanserin]		185 Å²	185 Å²	188 Å²	
O=C(O)c1ccccc1C(=O)Nc1cccc2ccccc12 [Naptalam]	168.6 Å²			170.9 Å²	
CNc1cnn(-c2cccc(C(F)(F)F)c2)c(=O)c1Cl [Norflurazon]	160.9 Å²	162.7 Å²	162.4 Å²	171.9 Å²	
O=C(O)c1cccc([N+](=O)[O-])c1 [3-Nitrobenzoic acid]	131.2 Å²				
CCC(C)OC(=O)c1ccc(O)cc1 (centres undefined) [sec-Butylparaben]	148.4 Å²				
Cc1ncc([C@@H](CCCCCCc2ccc3c(n2)NCCC3)CC(=O)O)cn1	199.2 Å²	192.3 Å²	192.4 Å²	199.7 Å²	
CCNc1nc(Cl)nc(NCC)n1 [Simazine]		143.3 Å²	144 Å²		
ClCc1cccnc1 [3-(Chloromethyl)pyridine hydrochloride]		123.8 Å²			
O=C(NCc1cccnc1)Nc1ccc([N+](=O)[O-])cc1 [N-(4-Nitrophenyl)-N'-(3-pyridinylmethyl)urea]	165.3 Å²	174.7 Å²	174.3 Å²		
C[C@@H]1C[C@H]2[C@@H]3CCC4=CC(=O)C=C[C@]4(C)[C@@]3(F)[C@@H](O)C[C@]2(C)[C@@]1(O)C(=O)CO [Dexamethasone]			177.6 Å²	216.8 Å²	
Cc1ccc2c(c1N)C(=O)c1ccccc1C2=O [1-Amino-2-methylanthraquinone]	150.1 Å²	153.6 Å²	153.2 Å²		147.6 Å²

Reference: the supplement of paper PMC12317010
